According to publication PMC4421829, “Design, Synthesis and Inhibitory Activity of Photoswitchable RET Kinase Inhibitors” (Scientific Reports, 2015):

Target: T1, RET (Homo sapiens, UniProt P07949)
T1 construct: RET tyrosine kinase domain (human recombinant RET expressed in Sf9 insect cells)
T1 sequence (P07949 724-1016 limits assumed): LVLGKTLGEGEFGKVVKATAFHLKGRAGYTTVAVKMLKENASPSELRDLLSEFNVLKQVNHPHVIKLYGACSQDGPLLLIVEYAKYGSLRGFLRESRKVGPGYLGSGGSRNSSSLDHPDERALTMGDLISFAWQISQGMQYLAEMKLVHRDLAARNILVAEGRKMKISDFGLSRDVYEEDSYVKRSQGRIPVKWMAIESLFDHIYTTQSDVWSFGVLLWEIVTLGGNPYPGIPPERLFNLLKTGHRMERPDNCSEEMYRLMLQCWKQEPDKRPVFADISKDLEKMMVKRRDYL
Assay: luminescent ATP-to-ADP conversion kinase assay (IGF1Rtide substrate, […] ATP), in the dark
Format: biochemical

IC50: 150 nM
Compound: CC(C)n1nc(/N=N/c2ccccc2)c2c(N)ncnc21 [compound 4, E-4]
